Drawing on patent US4310660A, “Lincomycin compounds” (The Upjohn Company, priority 1980, dated 1982), this text covers MIC for four compounds.

In brackets after ≈: the same amount, converted by molar mass.

In one assay the test system is S. hemolyticus. The assay is described as follows: MIC, test procedure as given supra. In kind it is cell-based. Particulars: UC152, 20 h, S. hemolyticus UC 152; read-out: MIC. Here is the method:
(§1) The Minimal Inhibitory Concentration (MIC's) of both compounds Vs. aerobic bacteria is determined using a standard microplate broth-dilution method. Brain Heart Infusion (BHI-Difco) broth medium is used, and the plates are incubated at 37° C. for 20 hrs.
The Minimal Inhibitory Concentration (MIC's) of a representative number of the compounds prepared in Examples 2-8 follows. The test procedure is as given supra.
As for `CS[C@H]1O[C@H]([C@H](NC(=O)C2CCCCN2CCO)[C@H](C)Cl)[C@H](O)[C@H](O)[C@H]1O` (stereo partly shown) [U-44,469], the MIC (in general, the least concentration at which growth counts as inhibited) worked out at 31.3 µg/mL (≈ 73.3 µM).

Regarding `CCc1ccnc(C(=O)N[C@@H]([C@H]2O[C@H](SC)[C@H](O)[C@@H](O)[C@H]2O)[C@H](C)Cl)c1` [U-45,652], the MIC came to 500 µg/mL (≈ 1230 µM).

In the case of `CCc1ccnc(C(=O)N[C@@H]([C@H]2O[C@H](SC)[C@H](O)[C@@H](O)[C@H]2O)[C@@H](C)O)c1` [U-45,653], the MIC is above 1000 µg/mL.

Consider `CCc1ccc(C(=O)N[C@@H]([C@H]2O[C@H](SC)[C@H](O)[C@@H](O)[C@H]2O)[C@H](C)Cl)nc1` [U-45,656], for which the MIC was found to be 3.9 µg/mL (≈ 9.63 µM).

The test system of the next assay is Proteus vulgaris. The assay is described as follows: MIC vs. aerobic bacteria, microplate broth-dilution (BHI). It is filed as cell-based. Particulars: Proteus vulgaris, UC93, 20 h, P. vulgaris UC 93; read-out: MIC. The method, then:
as §1
Take `CS[C@H]1O[C@H]([C@H](NC(=O)C2CCCCN2CCO)[C@H](C)Cl)[C@H](O)[C@H](O)[C@H]1O` (stereo partly shown) [U-44,469]: the MIC was above 1000 µg/mL.

In the case of `CCc1ccnc(C(=O)N[C@@H]([C@H]2O[C@H](SC)[C@H](O)[C@@H](O)[C@H]2O)[C@H](C)Cl)c1` [U-45,652], the minimum inhibitory concentration (MIC) is above 1000 µg/mL.

Regarding `CCc1ccnc(C(=O)N[C@@H]([C@H]2O[C@H](SC)[C@H](O)[C@@H](O)[C@H]2O)[C@@H](C)O)c1` [U-45,653], the MIC is above 1000 µg/mL.

As for `CCc1ccc(C(=O)N[C@@H]([C@H]2O[C@H](SC)[C@H](O)[C@@H](O)[C@H]2O)[C@H](C)Cl)nc1` [U-45,656], the MIC is above 1000 µg/mL.

Another assay has as its system Streptococcus faecalis. Described as above. It is filed as cell-based. As to conditions: Enterococcus faecalis, UC694, 20 h, St. faecalis UC 694; read-out: MIC. Here is the method:
as §1
`CS[C@H]1O[C@H]([C@H](NC(=O)C2CCCCN2CCO)[C@H](C)Cl)[C@H](O)[C@H](O)[C@H]1O` (stereo partly shown) [U-44,469]: the MIC is 1000 µg/mL (≈ 2340 µM).

Turning to `CCc1ccnc(C(=O)N[C@@H]([C@H]2O[C@H](SC)[C@H](O)[C@@H](O)[C@H]2O)[C@H](C)Cl)c1` [U-45,652], the MIC is above 1000 µg/mL.

In the case of `CCc1ccnc(C(=O)N[C@@H]([C@H]2O[C@H](SC)[C@H](O)[C@@H](O)[C@H]2O)[C@@H](C)O)c1` [U-45,653], the MIC is above 1000 µg/mL.

Consider `CCc1ccc(C(=O)N[C@@H]([C@H]2O[C@H](SC)[C@H](O)[C@@H](O)[C@H]2O)[C@H](C)Cl)nc1` [U-45,656], for which the minimum inhibitory concentration (MIC) was found to be 1000 µg/mL (≈ 2470 µM).

For a further assay, the system named is Klebsiella pneumoniae. The description is as above. It is filed as cell-based. Particulars: Klebsiella pneumoniae, UC58, 20 h, K. pneumoniae UC 58; read-out: MIC. Here is the method:
as §1
Regarding `CS[C@H]1O[C@H]([C@H](NC(=O)C2CCCCN2CCO)[C@H](C)Cl)[C@H](O)[C@H](O)[C@H]1O` (stereo partly shown) [U-44,469], the minimum inhibitory concentration (MIC) was above 1000 µg/mL.

For the compound `CCc1ccnc(C(=O)N[C@@H]([C@H]2O[C@H](SC)[C@H](O)[C@@H](O)[C@H]2O)[C@H](C)Cl)c1` [U-45,652], the minimum inhibitory concentration (MIC) amounted to 500 µg/mL (≈ 1230 µM).

For `CCc1ccnc(C(=O)N[C@@H]([C@H]2O[C@H](SC)[C@H](O)[C@@H](O)[C@H]2O)[C@@H](C)O)c1` [U-45,653], the MIC is above 1000 µg/mL.

As to `CCc1ccc(C(=O)N[C@@H]([C@H]2O[C@H](SC)[C@H](O)[C@@H](O)[C@H]2O)[C@H](C)Cl)nc1` [U-45,656], the MIC worked out at 1000 µg/mL (≈ 2470 µM).

A further assay relates to Diplococcus pneumoniae. Described as above. It is filed as cell-based. As to conditions: Streptococcus pneumoniae, UC41, 20 h, D. pneumoniae UC 41; read-out: MIC. Here is the method: as §1
`CS[C@H]1O[C@H]([C@H](NC(=O)C2CCCCN2CCO)[C@H](C)Cl)[C@H](O)[C@H](O)[C@H]1O` (stereo partly shown) [U-44,469]: the MIC amounted to 31.3 µg/mL (≈ 73.3 µM).

For the compound `CCc1ccnc(C(=O)N[C@@H]([C@H]2O[C@H](SC)[C@H](O)[C@@H](O)[C@H]2O)[C@H](C)Cl)c1` [U-45,652], the MIC was determined as 500 µg/mL (≈ 1230 µM).

Take `CCc1ccnc(C(=O)N[C@@H]([C@H]2O[C@H](SC)[C@H](O)[C@@H](O)[C@H]2O)[C@@H](C)O)c1` [U-45,653]: the minimal inhibitory concentration (MIC) was above 1000 µg/mL.

Another assay relates to Escherichia coli. The assay is described as above. In kind it is cell-based. As to conditions: UC45, 20 h, E. coli UC 45, read-out: MIC. Here is the method:
as §1
As for `CS[C@H]1O[C@H]([C@H](NC(=O)C2CCCCN2CCO)[C@H](C)Cl)[C@H](O)[C@H](O)[C@H]1O` (stereo partly shown) [U-44,469], the MIC is above 1000 µg/mL.

In the case of `CCc1ccnc(C(=O)N[C@@H]([C@H]2O[C@H](SC)[C@H](O)[C@@H](O)[C@H]2O)[C@H](C)Cl)c1` [U-45,652], the minimum inhibitory concentration (MIC) was above 1000 µg/mL.

Consider `CCc1ccnc(C(=O)N[C@@H]([C@H]2O[C@H](SC)[C@H](O)[C@@H](O)[C@H]2O)[C@@H](C)O)c1` [U-45,653], for which the MIC was above 1000 µg/mL.

As to `CCc1ccc(C(=O)N[C@@H]([C@H]2O[C@H](SC)[C@H](O)[C@@H](O)[C@H]2O)[C@H](C)Cl)nc1` [U-45,656], the MIC is above 1000 µg/mL.

The next assay relates to Salmonella schottmuelleri. The assay is described as above. It is filed as cell-based. Particulars: Salmonella, UC126, 20 h, S. schottmuelleri UC 126. The method, then: as §1
Regarding `CS[C@H]1O[C@H]([C@H](NC(=O)C2CCCCN2CCO)[C@H](C)Cl)[C@H](O)[C@H](O)[C@H]1O` (stereo partly shown) [U-44,469], the minimal inhibitory concentration (MIC) was above 1000 µg/mL.

The compound `CCc1ccnc(C(=O)N[C@@H]([C@H]2O[C@H](SC)[C@H](O)[C@@H](O)[C@H]2O)[C@H](C)Cl)c1` [U-45,652] came in with a minimal inhibitory concentration (MIC) above 1000 µg/mL.

On to `CCc1ccnc(C(=O)N[C@@H]([C@H]2O[C@H](SC)[C@H](O)[C@@H](O)[C@H]2O)[C@@H](C)O)c1` [U-45,653], for which the MIC is above 1000 µg/mL.

Regarding `CCc1ccc(C(=O)N[C@@H]([C@H]2O[C@H](SC)[C@H](O)[C@@H](O)[C@H]2O)[C@H](C)Cl)nc1` [U-45,656], it took 1000 µg/mL (≈ 2470 µM) to inhibit growth (MIC).

Another assay has as its system Pseudomonas aeruginosa. The assay is described as above. In kind it is cell-based. As to conditions: UC95, 20 h, Ps. aeruginosa UC 95, read-out: MIC. The method, then:
as §1
As for `CS[C@H]1O[C@H]([C@H](NC(=O)C2CCCCN2CCO)[C@H](C)Cl)[C@H](O)[C@H](O)[C@H]1O` (stereo partly shown) [U-44,469], the MIC is above 1000 µg/mL.

Regarding `CCc1ccnc(C(=O)N[C@@H]([C@H]2O[C@H](SC)[C@H](O)[C@@H](O)[C@H]2O)[C@H](C)Cl)c1` [U-45,652], the minimum inhibitory concentration (MIC) was above 1000 µg/mL.

As to `CCc1ccnc(C(=O)N[C@@H]([C@H]2O[C@H](SC)[C@H](O)[C@@H](O)[C@H]2O)[C@@H](C)O)c1` [U-45,653], the MIC was above 1000 µg/mL.

As for `CCc1ccc(C(=O)N[C@@H]([C@H]2O[C@H](SC)[C@H](O)[C@@H](O)[C@H]2O)[C@H](C)Cl)nc1` [U-45,656], the minimal inhibitory concentration (MIC) was above 1000 µg/mL.

A further assay relates to Staphylococcus aureus. The description is as above. It is filed as cell-based. Particulars: Staphylococcus aureus, UC76, 20 h, S. aureus UC 76; read-out: MIC.
`CS[C@H]1O[C@H]([C@H](NC(=O)C2CCCCN2CCO)[C@H](C)Cl)[C@H](O)[C@H](O)[C@H]1O` (stereo partly shown) [U-44,469]: the minimal inhibitory concentration (MIC) turned out to be 250 µg/mL (≈ 586 µM).

Take `CCc1ccnc(C(=O)N[C@@H]([C@H]2O[C@H](SC)[C@H](O)[C@@H](O)[C@H]2O)[C@H](C)Cl)c1` [U-45,652]: the MIC stood at 1000 µg/mL (≈ 2470 µM).

As for `CCc1ccnc(C(=O)N[C@@H]([C@H]2O[C@H](SC)[C@H](O)[C@@H](O)[C@H]2O)[C@@H](C)O)c1` [U-45,653], the minimal inhibitory concentration (MIC) was above 1000 µg/mL.

With `CCc1ccc(C(=O)N[C@@H]([C@H]2O[C@H](SC)[C@H](O)[C@@H](O)[C@H]2O)[C@H](C)Cl)nc1` [U-45,656], the minimal inhibitory concentration (MIC) came to 62.5 µg/mL (≈ 154 µM).

The assay is the same for the next values; noted with them: Staphylococcus aureus, UC570, 20 h, S. aureus UC 570; read-out: MIC.
For `CS[C@H]1O[C@H]([C@H](NC(=O)C2CCCCN2CCO)[C@H](C)Cl)[C@H](O)[C@H](O)[C@H]1O` (stereo partly shown) [U-44,469], the minimum inhibitory concentration (MIC) is 250 µg/mL (≈ 586 µM).

`CCc1ccnc(C(=O)N[C@@H]([C@H]2O[C@H](SC)[C@H](O)[C@@H](O)[C@H]2O)[C@H](C)Cl)c1` [U-45,652]: the minimal inhibitory concentration (MIC) was above 1000 µg/mL.

Turning to `CCc1ccnc(C(=O)N[C@@H]([C@H]2O[C@H](SC)[C@H](O)[C@@H](O)[C@H]2O)[C@@H](C)O)c1` [U-45,653], the MIC was above 1000 µg/mL.

Regarding `CCc1ccc(C(=O)N[C@@H]([C@H]2O[C@H](SC)[C@H](O)[C@@H](O)[C@H]2O)[C@H](C)Cl)nc1` [U-45,656], the minimal inhibitory concentration (MIC) came out at 62.5 µg/mL (≈ 154 µM).

Staying with this assay, now noted: Staphylococcus aureus, UC746, 20 h, S. aureus UC 746; read-out: MIC.
Turning to `CS[C@H]1O[C@H]([C@H](NC(=O)C2CCCCN2CCO)[C@H](C)Cl)[C@H](O)[C@H](O)[C@H]1O` (stereo partly shown) [U-44,469], the MIC is above 1000 µg/mL.

As to `CCc1ccnc(C(=O)N[C@@H]([C@H]2O[C@H](SC)[C@H](O)[C@@H](O)[C@H]2O)[C@H](C)Cl)c1` [U-45,652], the MIC is 1000 µg/mL (≈ 2470 µM).

In the case of `CCc1ccnc(C(=O)N[C@@H]([C@H]2O[C@H](SC)[C@H](O)[C@@H](O)[C@H]2O)[C@@H](C)O)c1` [U-45,653], the MIC is above 1000 µg/mL.

Consider `CCc1ccc(C(=O)N[C@@H]([C@H]2O[C@H](SC)[C@H](O)[C@@H](O)[C@H]2O)[C@H](C)Cl)nc1` [U-45,656], for which the MIC turned out to be 62.5 µg/mL (≈ 154 µM).
